{"source": "patent US20140322250A1", "about": "“Peptides for the Treatment of Multiple Sclerosis and Related Diseases” (priority 2013, published 2014)", "key": {"[1]": {"target": "CCR2 (Homo sapiens, UniProt P41597)", "sequence (P41597 whole entry)": "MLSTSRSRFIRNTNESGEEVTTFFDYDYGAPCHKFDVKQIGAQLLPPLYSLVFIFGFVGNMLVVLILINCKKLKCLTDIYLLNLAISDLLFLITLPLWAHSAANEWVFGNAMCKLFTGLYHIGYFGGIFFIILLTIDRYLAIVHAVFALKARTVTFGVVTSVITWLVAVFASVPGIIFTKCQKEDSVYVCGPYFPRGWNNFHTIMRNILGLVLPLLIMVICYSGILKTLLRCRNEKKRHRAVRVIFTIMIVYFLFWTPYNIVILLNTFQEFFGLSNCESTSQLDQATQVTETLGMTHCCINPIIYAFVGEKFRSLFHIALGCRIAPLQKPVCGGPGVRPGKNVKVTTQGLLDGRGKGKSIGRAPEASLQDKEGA", "type": "cell-based", "settings": "for inhibition of CCR2 (MCP-1) elicited chemotaxis: FIG. 4, 20 pM peptide 30 minutes prior, MCP-1 0.6 nM for 2 hours; for blocking CCL2 (MCP-1) chemotaxis: FIG. 3, tested at 10^−14 M", "excerpt": "Triplicate determinations were made and results are expressed as the mean plus or minus SEM. The experiment shown is a direct comparison among all RAPs. Statistical analysis was by unpaired t-test, with significance set at the p<0.01 (*) level for difference from CCL2 only chemotaxis.\nData are the average of 2 separate experiments, conducted with triplicate determinations. Data (chemotactic index) are presented as mean±SEM. The IC50 for inhibition of MCP-1 or MIP-1β was generated by a nonlinear inhibition curve fit in GraphPad Prism software, version 5.0. […] Data are presented as mean±SEM. *P<0.05, **P<0.01 vs RAP-103 untreated.\nTriplicate determinations were performed and results are expressed as the mean plus or minus SEM. The experiment shown is a direct comparison among all RAPs. Statistical analysis was by unpaired t-test, with significance set at the p<0.01 (*) level for difference from CCL2 only chemotaxis.\nA representative experiment is shown comprising triplicate determinations and is presented as relative fluorescence units, Mean±SEM."}, "[2]": {"system": "β-Integrin-mediated adhesion to human fibronectin", "test": "MCP-1 elicited adhesion of human monocytes to human fibronectin", "type": "cell-based", "settings": "FIG. 5, 10 minutes pretreatment", "protocol": "Human monocytes were treated with the indicated doses of all-D-(IDNYT) for 10 minutes prior to adherence to the β-integrin human fibronectin. Data is the average of two separate experiments, conducted with triplicate determinations. Data are presented as Mean±SEM of the normalized adherence response from two experiments. The IC50 for inhibition of MCP-1 stimulated adherence was generated using a nonlinear inhibition curve fit in GraphPad Prism Version 5.0."}, "[3]": {"test": "Pharmacokinetic study, plasma concentration by LC-MS/MS", "type": "in vivo, male Sprague Dawley rat", "protocol": "A pharmacokinetic study of all-D-TTNYT (SEQ ID NO:2) (RAP-103) following intravenous and oral administration was conducted at a target dose level of 1 mg/kg in the male Sprague Dawley rat. The concentration of RAP-103 in each plasma and brain sample was measured using a suitable LC-MS/MS assay. The assay used was a research grade assay (RGA-1) which was established by assessing the accuracy, precision and the linearity of the method. Plasma concentrations generated were used to evaluate the pharmacokinetic parameters of all-D-TTNYT (SEQ ID NO:2) (RAP-103).\nThe dose formulation was administered intravenously to some animals as a slow bolus over ca 30 s via the tail vein and to a different group of animals orally via gastric gavage at a target dose volume of 1 mL/kg, to achieve a target dose level of 1 mg/kg. The dose volume administered was calculated according to the bodyweight of the animal on the day of dosing. The weight of administered dose was recorded. […] Results expressed as ng/mL"}, "[4]": {"system": "response to bradykinin", "settings": "amounts up to 50,000 times the standard challenge of bradykinin; Stewart and Woolley 1965; cited from earlier work"}, "[5]": {"settings": "6.0 mg daily intranasal", "experimental": "Their neurological examination confirmed increased deep tendon reflexes, spasticity of the lower limbs and pyramidal weakness of the legs. Therapy, consisting of 6.0 mg of Peptide T daily, was self-administered via 4 metered intranasal sprays, delivered three times daily."}, "[6]": {"target": "TLR4 on human monocyte-derived immature dendritic cells (human, UniProt O00206 24-839)", "sequence (O00206 24-839)": "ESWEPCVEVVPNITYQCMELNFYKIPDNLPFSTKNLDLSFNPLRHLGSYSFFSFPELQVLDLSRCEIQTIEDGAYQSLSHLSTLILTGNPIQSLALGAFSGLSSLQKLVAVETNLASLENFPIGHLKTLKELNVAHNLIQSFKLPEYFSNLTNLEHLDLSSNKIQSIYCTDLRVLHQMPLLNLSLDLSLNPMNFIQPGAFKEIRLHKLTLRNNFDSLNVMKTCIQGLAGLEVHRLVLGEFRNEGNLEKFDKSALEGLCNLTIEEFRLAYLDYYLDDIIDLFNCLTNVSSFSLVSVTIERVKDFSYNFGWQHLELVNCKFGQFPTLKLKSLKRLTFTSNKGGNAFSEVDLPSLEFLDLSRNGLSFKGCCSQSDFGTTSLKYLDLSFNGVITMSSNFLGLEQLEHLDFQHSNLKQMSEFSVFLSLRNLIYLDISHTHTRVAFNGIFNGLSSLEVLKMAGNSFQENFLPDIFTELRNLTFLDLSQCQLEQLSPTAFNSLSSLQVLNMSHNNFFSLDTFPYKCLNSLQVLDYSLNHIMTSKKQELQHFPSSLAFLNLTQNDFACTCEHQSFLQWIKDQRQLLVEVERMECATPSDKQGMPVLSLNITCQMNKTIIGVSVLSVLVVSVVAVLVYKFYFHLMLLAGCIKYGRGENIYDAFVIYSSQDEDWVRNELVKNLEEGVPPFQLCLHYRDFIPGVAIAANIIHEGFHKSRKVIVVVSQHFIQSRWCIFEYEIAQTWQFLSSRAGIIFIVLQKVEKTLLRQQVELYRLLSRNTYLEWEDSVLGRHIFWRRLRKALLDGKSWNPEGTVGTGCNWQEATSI", "test": "cell-based or functional assay"}}, "note": "Where no end group is shown, it is not given here. [ ]: non-standard residue; d: D form.", "data": [{"molecule": "Glu-Thr-Trp-Tyr-Ser ([dE][dT][dW][dY][dS]) [ETWYS]", "values": [{"measurement": "inhibition of CCR2 (MCP-1) elicited chemotaxis", "setting": "[1]", "result": "potently block"}]}, {"molecule": "Ser-Ser-Thr-Tyr-Arg ([dS][dS][dT][dY][dR]) [SSTYR]", "values": [{"measurement": "blocking CCL2 (MCP-1) chemotaxis", "setting": "[1]", "result": "retain potency"}]}, {"molecule": "Ile-Asp-Asn-Tyr Thr ([dI][dD][dN][dY][dT]) [IDNYT (SEQ ID NO:6)]", "values": [{"measurement": "inhibition of CCR2 (MCP-1) elicited chemotaxis", "setting": "[1]", "result": "potently block"}, {"measurement": "blocking of MCP-1 elicited adhesion", "setting": "[2]", "result": "potently blocking"}]}, {"molecule": "C[C@H](O)[C@@H](N)C(=O)N[C@@H](C(=O)N[C@H](CC(N)=O)C(=O)N[C@H](Cc1ccc(O)cc1)C(=O)N[C@@H](C(=O)O)[C@H](C)O)[C@H](C)O", "note": "[RAP-103, all-D-TTNYT]", "values": [{"measurement": "time of peak levels in plasma", "setting": "[3]; 1 mg/kg, rat", "result": "10 to 15", "unit": "min"}, {"measurement": "concentration in plasma", "setting": "[3]; intravenous 1 mg/kg, 0.5 h, individual animals", "result": 561, "unit": "ng/mL"}, {"measurement": "tolerability of dose administrations", "setting": "[3]; intravenous and oral gavage, 1 mg/kg, rat", "result": "well tolerated"}, {"measurement": "level at 0.083 h", "setting": "[3]; male, Sprague Dawley, rat, plasma, iv, 1 mg/kg, intravenous 1 mg/kg, 0.083 h, individual animals", "result": 3050, "unit": "ng/mL"}, {"measurement": "level at 0.167 h", "setting": "[3]; male, Sprague Dawley, rat, plasma, iv, 1 mg/kg, intravenous 1 mg/kg, 0.167 h, individual animals", "result": 2400, "unit": "ng/mL"}, {"measurement": "level at 0.25 h", "setting": "[3]; male, Sprague Dawley, rat, plasma, iv, 1 mg/kg, intravenous 1 mg/kg, 0.25 h, individual animals", "result": 2050, "unit": "ng/mL"}, {"measurement": "level at 0.5 h", "setting": "[3]; male, Sprague Dawley, rat, plasma, iv, 1 mg/kg, intravenous 1 mg/kg, 0.5 h, individual animals", "result": 558, "unit": "ng/mL"}, {"measurement": "level at 1 h", "setting": "[3]; male, Sprague Dawley, rat, plasma, iv, 1 mg/kg, intravenous 1 mg/kg, 1 h, individual animals", "result": 405, "unit": "ng/mL"}]}, {"molecule": "Asn-Thr-Ser-Tyr-Gly ([dN][dT][dS][dY]G) [NTSYG]", "values": [{"measurement": "inhibition of CCR2 (MCP-1) elicited chemotaxis", "setting": "[1]", "result": "potently block"}]}, {"molecule": "Thr-Thr-Ser-Tyr-Thr ([dT][dT][dS][dY][dT]) [TTSYT]", "values": [{"measurement": "blocking CCL2 (MCP-1) chemotaxis", "setting": "[1]", "result": "retain potency"}]}, {"molecule": "Asn-Thr-Arg-Tyr-Arg [NYRYR]", "values": [{"measurement": "inhibition of CCR2 (MCP-1) elicited chemotaxis", "setting": "[1]", "result": "potently block"}]}, {"molecule": "all-D-bradykinin", "values": [{"measurement": "inhibition of the response to bradykinin or bradykinin-like effect", "setting": "[4]", "result": "neither any inhibition of the response to bradykinin, or any bradykinin-like effect"}]}, {"molecule": "Ile-Asn-Asn-Tyr-Thr ([dI][dN][dN][dY][dT]) [IDNYT (SEQ ID NO:8)]", "values": [{"measurement": "inhibition of CCR2 (MCP-1) elicited chemotaxis", "setting": "[1]", "result": "potently block"}]}, {"molecule": "ASTTTNYY [Peptide T]", "values": [{"measurement": "patient-reported change", "setting": "[5]; after 2 weeks, continued to end of week 10", "result": "definite improvements"}, {"measurement": "time to walk 10 meters", "setting": "[5]; end of week 10, 65 seconds initially, one patient", "result": 15, "unit": "s"}]}, {"molecule": "Asn-Thr-Ser-Tyr-Arg ([dN][dT][dS][dY][dR]) [NTSYR]", "values": [{"measurement": "blocking CCL2 (MCP-1) chemotaxis", "setting": "[1]", "result": "retain potency"}]}, {"molecule": "[dT][dT][dN][dY][dT]", "note": "[all-D-TTNYT (RAP-103)]", "values": [{"measurement": "IC50 for inhibition of LPS (100 ng/mL) induced TNFα production in human monocyte-derived iDC (FIG. 6)", "setting": "[6]", "result": "~0.1", "unit": "pM"}]}]}
